Here are results for four compounds from patent US12227500B2, “Substituted pyrrolo[2,3-b]pyridines for suppressing toxic endoplasmic reticulum stress” (THE TRUSTEES OF COLUMBIA UNIVERSITY IN THE CITY OF NEW YORK, priority 2018, dated 2025).

pEC50, pIC50: −log10 of the molar value. Several values for one entry are separate records, joined by “and”; a condition that tells them apart may be missing. Equal entries are not always repeated. Where two headings read alike, the source gives them in different places.

Data set [1] relates to phospho-cjun. Description: Phospho-cjun in olfactory bulbs after treatment in vivo (western blot). Details: species or system mouse. The conditions noted are these: 10 mg/kg oral gavage. On the procedure: Compounds at 10 mg/kg were delivered intraperitoneally (IP), orally, or sub-cutaneously (SC). Animals were sacrificed 1 h after treatment. Their olfactory bulbs were dissected and lysed for western blot analysis. Phospho-cjun expression was normalized to the housekeeping protein GAPDH.
We therefore selected phospho-cjun as a marker of target engagement for further in vivo studies. C-jun is highly expressed throughout the murine central nervous system, especially in the olfactory bulbs. […] Animals were then sacrificed after 1 h, and their olfactory bulbs were sub-dissected and lysed for further western blot analysis. Samples were probed with an antibody specific to phosphorylated c-jun (at serine 63; cell signaling) and normalized to the housekeeping gene GAPDH.

In data set [2] the test system is human ES motor neurons carrying the ALS-causing SOD1^A4V mutation. Description: cells. The format is cell-based. The note with it: Homo sapiens, Neuron, 72 h, CPA 33 μM, 72 h. On the procedure:
Next, survival assays were performed with all the analogs at once to generate a low-variability dataset. All compounds were evaluated at concentrations ranging from 0.1-3.0 μM (five-point dilution) in three technical replicates and two biological replicates.

Data set [3] can be described thus: Plasma and brain concentration 30 min after IP injection. The class given is in vivo, mouse. The note with it: male, C57BL6/J, mouse, mice, ip dosing, 30 minutes; for Kp at 30 min: brain/plasma, read-out: B/P. On the procedure: All studies were performed on 6-week old male C57BL6/J mice that were housed in the Columbia University Medical Center facility in a 12h light/dark cycle with access to food and water ad libitum. All animal procedures were approved by the Columbia University IACUC. […] Animals were weighed and injected once intraperitoneally (IP) at the indicated dose (10 or 20 mg/kg). After 30 min, animals were deeply anesthetized with 2.5% Avertin. Whole blood was collected by cardiac puncture in tubes containing 0.5M EDTA as an anticoagulant, and centrifuged for 10 min at 845 rcf at 4° to isolate plasma. Following cardiac puncture, animals were decapitated and brains were dissected and weighed. Brain samples were homogenized with a glass dounce homogenizer in 5 volumes of ddH2O. Brain and plasma samples were snap frozen in liquid nitrogen and stored at −80° C. before further processing.
The plasma samples were transferred to Eppendorf tubes (50 μL per sample) and diluted with acetonitrile (200 μL). The samples were sonicated for 1 minute followed by centrifugation at 16,000 rpm for 10 minutes. The supernatant was transferred to another Eppendorf tube and the solvent evaporated overnight. The samples were reconstituted in a mixture of 40 μL acetonitrile and 10 μL water transferred to a sample vial with insert, and analyzed by LC-MS.
The homogenized brain samples (250 μL) were transferred to Eppendorf tubes and diluted with acetonitrile (750 μL). The samples were sonicated for 1 minute followed by centrifugation at 16,000 rpm for 10 minutes. The supernatant (900 μL) was transferred to another Eppendorf tube and the solvent evaporated overnight. The samples were reconstituted in a mixture of 80 μL acetonitrile and 20 μL water, transferred to a sample vial with insert, and analyzed by LC-MS.
LC-MS analysis was performed on a platform comprising a Thermo Scientific Dionex Ultimate 3000 and a Bruker amaZon SL equipped with an electrospray ionization source controlled by Bruker Hystar 3.2. The compound concentration in each plasma sample was determined using a calibration curve. Chromatographic separation was performed by injecting 10 μL of the sample onto an Agilent Eclipse Plus C18 column (2.1×50 mm, 3.5 μm) maintained at 20° C. The flow rate was maintained at 400 μL/min. The initial flow conditions were 60% solvent A (water containing 0.1% acetic acid) and 40% solvent B (methanol containing 0.1% acetic acid). Solvent B was raised to 60% over 0.25 minutes and to 70% by 6.75 minutes.

Data set [4] has as its target NUAK1 (Homo sapiens, UniProt O60285). The note with it: cited from earlier work.
Data set [5] has as its system human stem cell-derived motor neurons derived from a healthy patient.
In data set [6] the test system is human ES motor neurons. Briefly: Rescue of CPA toxicity by kinase inhibitors in dilution series (FIG. 3). The conditions noted are these: dilution series, FIG. 3.
The test system of data set [7] is human stem cell-derived motor neurons derived from a healthy patient. Description: CPA survival assay, wild-type human stem cell-derived motor neurons. The note with it: 8-point dilution series.
The test system of data set [8] is HB9::GFP-SOD1^+/A4V human motor neurons. Description: Rescue of CPA toxicity in human ESC-derived motor neurons, SOD1^+/A4V. The class given is cell-based. The note with it: SOD1^A4V motor neurons, 33 μM CPA. The text has this:
(§1) One advantage of the stem cell-derived motor neuron survival assay is that it can be easily extended to human motor neurons. To adapt the assay to human cells, we generated a new isogenic pair of ESC lines derived from a human ESC line expressing GFP under the control of the Hb9 motor neuron promoter (HUES3 HB9::GFP, (Di Giorgio et al. 2008)). […] . The pair of cell lines was differentiated into motor neurons in parallel using previously published protocols (Amoroso et al. 2013; […] .
(§2) Differentiation of human isogenic HUES3 ESC HB9::GFP reporter lines into motor neurons was performed as previously described (Maury et al. 2015). Cells were dissociated on day 16 of differentiation, FACS-sorted and plated on poly-ornithine- and laminin-coated surfaces as above. Serum-free human motor neuron plating media was supplemented with the antimitotic UFdU and the neurotrophic factors GDNF, BDNF, CNTF, and IGF1 (all at 10 ng/mL) as described (Johnson-Kerner et al. 2015).

Data set [9] concerns HB9::GFP-SOD1^+/+ human motor neurons. Description: Rescue of CPA toxicity in human ESC-derived motor neurons, SOD1^+/+. The class given is cell-based. The note with it: WT motor neurons, 33 μM CPA.
Excerpt: as §1, §2

Data set [10] has as its target MLK3 (Homo sapiens, UniProt Q16584). The conditions noted are these: 0.5 μM; Anastassiadis et al. 2011; cited from earlier work.
Data set [11] in a line: Solubility of kenpaullone (observation). The class given is physicochemical.
Data set [12] concerns hSOD1^G93A mice. Briefly: TUDCA on neuromuscular junction denervation of tibialis anterior. The class given is in vivo, mouse. The conditions noted are these: 0.5 mg/g subcutaneously every three days, P30 to P50. An excerpt: To test the ability of TUDCA to preserve motor axons in ALS models in vivo, we designed a small-scale study in which we evaluated the denervation of the fast fatigable hind limb muscle tibialis anterior (TA) (FIG. 20D). […]. During this period, the TA muscles display 25-40% denervation before becoming substantially atrophied at later time points. […]. At the end of the experiment, we counted total NMJs by staining for acetylcholine receptors on the TA muscle with Alexa Fluor 488-conjugated α-bungarotoxin, and assessed their innervation by staining for motor axons with antibodies against vesicular acetylcholine […] (VAChT) (FIG. 20F). […].
(2) hSOD1^WT mice receiving 0.5 mg/g TUDCA in 0.01 M PBS subcutaneously to evaluate the mutation-specific effects of NMJ denervation and of the drug; […]. […] Because a lack of co-localization indicated muscle denervation, % NMJ innervation was determined by dividing the total number of areas of overlap between VAChT and BTX signals (total number innervated endplates) by the number of areas containing BTX signal (total number of endplates). One TA was assessed for each animal (n=4-6), with every third section throughout the whole muscle stained and counted such that a minimum of 1000 NMJs were evaluated per animal. Images were acquired using a Nikon Eclipse TE-2000-E fluorescence microscope with a 4× or 10× objective. […]

MLK3, sequence (Q16584 whole entry, species assumed): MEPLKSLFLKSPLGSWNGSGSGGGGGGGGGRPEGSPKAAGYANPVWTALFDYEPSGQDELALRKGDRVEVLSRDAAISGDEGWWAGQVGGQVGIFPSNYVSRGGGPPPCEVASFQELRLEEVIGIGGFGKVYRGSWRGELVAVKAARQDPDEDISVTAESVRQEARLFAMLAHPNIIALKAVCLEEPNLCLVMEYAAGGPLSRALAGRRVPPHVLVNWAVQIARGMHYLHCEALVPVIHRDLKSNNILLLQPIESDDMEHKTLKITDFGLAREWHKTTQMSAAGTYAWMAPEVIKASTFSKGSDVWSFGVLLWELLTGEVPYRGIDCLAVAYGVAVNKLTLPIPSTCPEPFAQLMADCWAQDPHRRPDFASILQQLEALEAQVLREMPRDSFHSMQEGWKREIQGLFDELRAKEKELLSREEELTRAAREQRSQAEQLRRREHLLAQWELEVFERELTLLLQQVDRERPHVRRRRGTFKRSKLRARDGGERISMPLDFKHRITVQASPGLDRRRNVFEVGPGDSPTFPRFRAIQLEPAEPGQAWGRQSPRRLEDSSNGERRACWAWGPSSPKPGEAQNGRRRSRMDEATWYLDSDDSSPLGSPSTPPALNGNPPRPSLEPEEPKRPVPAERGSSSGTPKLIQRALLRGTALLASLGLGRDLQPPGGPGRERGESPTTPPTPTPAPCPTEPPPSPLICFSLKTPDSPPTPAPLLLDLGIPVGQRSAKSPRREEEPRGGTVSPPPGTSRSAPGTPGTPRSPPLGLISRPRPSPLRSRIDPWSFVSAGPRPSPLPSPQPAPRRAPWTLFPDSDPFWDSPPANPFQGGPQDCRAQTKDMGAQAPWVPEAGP
NUAK1, sequence (O60285 whole entry, species assumed): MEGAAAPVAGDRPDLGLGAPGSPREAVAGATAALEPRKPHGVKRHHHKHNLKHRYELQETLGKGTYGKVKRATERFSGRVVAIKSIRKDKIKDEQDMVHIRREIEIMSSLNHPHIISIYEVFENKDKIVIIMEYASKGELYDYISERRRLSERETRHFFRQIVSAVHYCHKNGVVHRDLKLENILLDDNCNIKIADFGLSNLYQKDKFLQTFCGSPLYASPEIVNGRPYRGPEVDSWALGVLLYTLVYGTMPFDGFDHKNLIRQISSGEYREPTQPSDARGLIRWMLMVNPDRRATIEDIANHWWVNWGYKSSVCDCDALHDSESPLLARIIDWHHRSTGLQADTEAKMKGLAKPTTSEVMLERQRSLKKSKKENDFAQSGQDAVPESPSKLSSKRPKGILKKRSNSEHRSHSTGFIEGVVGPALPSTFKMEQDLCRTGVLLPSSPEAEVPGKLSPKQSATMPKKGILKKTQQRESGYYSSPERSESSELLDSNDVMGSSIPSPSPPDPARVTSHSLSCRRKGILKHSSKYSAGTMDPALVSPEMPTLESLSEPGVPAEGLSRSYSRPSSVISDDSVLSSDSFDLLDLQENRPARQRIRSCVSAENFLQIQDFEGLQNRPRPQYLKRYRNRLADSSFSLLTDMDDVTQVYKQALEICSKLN

Consider `OCCN1CCN(Cc2ccc(-c3cnc4[nH]cc(-c5cccc(F)c5)c4c3)cc2)CC1` [Compound 12h, 2-(4-(4-(3-(3-Fluorophenyl)-1H-pyrrolo[2,3-b]pyridin-5-yl)benzyl)piperazin-1-yl)ethan-1-ol], for which the “oral bioavailability (from reduction of cjun phosphorylation after oral gavage)” value in data set [1] is given as “orally bioavailable”. Besides, the pEC50 (usually the negative decadic logarithm of the EC50, by convention in mol/L) in data set [2] (read-out: EC50) is 7.00. For the same compound, in data set [2] (read-out: Emax (MN survival % untreated)), the Emax was found to be 117%. Moreover, the Kp at 30 min in [3] (10 mg/kg) was found to be 2; in data set [3] (20 mg/kg), 3.3. Also, the concentration at 30 min is < 500 ng/g and < 1.2 µM in data set [3] (10 mg/kg, read-out: brain); < 250 ng/mL and < 580 nM in data set [3] (10 mg/kg, read-out: plasma); 1670 ng/g and 3.88 µM in data set [3] (20 mg/kg, read-out: brain); 505 ng/mL and 1.17 µM in data set [3] (20 mg/kg, read-out: plasma).
Regarding `Cc1nc(Nc2cnn(C3CCNCC3)c2)nc2c1N(C)C(=O)c1cc3ccccc3cc1N2C` [HTH 01-015], in data set [4], the pIC50 – broadly, −log10 of the IC50, conventionally taken in molar units – is 7.00. The “concentration above which toxic to motor neurons in the absence of CPA” value in data set [5] is listed as “above 2 μM”. For the same compound, the “rescue of CPA toxicity” value in data set [6] was “failed to rescue CPA toxicity”; in data set [7], “unable to rescue CPA toxicity”.
On to `O=C1Cc2c([nH]c3ccc(Br)cc23)-c2ccccc2N1` [Kenpaullone], for which the “rescue of CPA-induced cell death” value amounted to 31% in data set [8] and 42% in [9]. The MLK3 activity remaining in [10] was 49.3%. For the same compound, the “solubility at the concentrations effective in in vitro CPA assays” value in data set [11] is listed as “insoluble”.
In the case of `C[C@H](CCC(=O)NCCS(=O)(=O)O)[C@H]1CC[C@H]2[C@@H]3[C@@H](O)C[C@@H]4C[C@H](O)CC[C@]4(C)[C@H]3CC[C@]12C` [TUDCA, tauroursodeoxycholic acid], the “rescue of CPA-induced cell death” value in data set [8] stood at 9%; in data set [9], 34%. Further, in data set [12], the “NMJ innervation vs untreated animals” value is recorded as “moderate, but statistically significant increase in NMJ innervation”.
